Measured values from publication PMC6364417, “Kinase inhibitor library screening identifies synergistic drug combinations effective in sensitive and resistant melanoma cells” (Journal of Experimental & Clinical Cancer Research : CR, 2019).

Assays:
Experiment in all cases: Kinase inhibitor library screening, PrestoBlue cell viability, 1 or 10 μM, 72 h
IGR37 cells (parental) = settings: IGR37 Parental
Procedure: (§1) After 72 h of treatment, cell viability was assessed using the PrestoBlue Cell Viability Reagent (ThermoFisher Scientific). Measurements were performed with the CLARIOstar Monochromator microplate reader (BMG Labtech).
(§2) Kinase inhibitor library screening. […] Each cell line was treated in its sensitive form (parental), and also as 2 resistant derivatives, which were made resistant to either Vemurafenib (XP) or Dabrafenib (GP). Drugs were added at 2 different concentrations, 1 and 10 μM, for 72 h and cell viability was assessed using the PrestoBlue Cell Viability assay. Results are depicted as % viability compared to untreated cells. Each cell line was analyzed at least in duplicate. […] (XLSX 95 kb)

[1] = test system: A375-GP cells (Dabrafenib-resistant); settings: A375 GP
Procedure: as §1, §2

A375 cells (parental) = settings: A375 Parental, 72 h
Procedure: as §1, §2

[2] = test system: 501Mel-GP cells (Dabrafenib-resistant); settings: 501Mel GP
Procedure: as §1, §2

[3] = test system: IGR37-XP cells (Vemurafenib-resistant); settings: IGR37 XP
Procedure: as §1, §2

[4] = test system: IGR37-GP cells (Dabrafenib-resistant); settings: IGR37 GP
Procedure: as §1, §2

[5] = test system: 501Mel-XP cells (Vemurafenib-resistant); settings: 501Mel XP
Procedure: as §1, §2

501Mel cells (parental) = settings: 501Mel Parental
Procedure: as §1, §2

[6] = test system: A375-XP cells (Vemurafenib-resistant); settings: A375 XP
Procedure: as §1, §2

Cn1cc(-c2ccc3nnc(Sc4ccc5ncccc5c4)n3n2)cn1 [SGX-523]
cell viability (kinase inhibitor library screening) (IGR37 cells (parental); 1μΜ, 72 h): 107.3%
cell viability (kinase inhibitor library screening) (IGR37 cells (parental); 10μΜ, 72 h): 94.5%
cell viability (kinase inhibitor library screening) ([1]; 1μΜ, 72 h): 89.5%
cell viability (kinase inhibitor library screening) ([1]; 10μΜ, 72 h): 94.8%
cell viability (kinase inhibitor library screening) (A375 cells (parental); 10μΜ): 97.1%
cell viability (kinase inhibitor library screening) (A375 cells (parental); 1μΜ): 104.5%
cell viability (kinase inhibitor library screening) ([2]; 1μΜ, 72 h): 82.6%
cell viability (kinase inhibitor library screening) ([2]; 10μΜ, 72 h): 64.3%
cell viability (kinase inhibitor library screening) ([3]; 1μΜ, 72 h): 100.4%
cell viability (kinase inhibitor library screening) ([3]; 10μΜ, 72 h): 74.3%
cell viability (kinase inhibitor library screening) ([4]; 1μΜ, 72 h): 94.1%
cell viability (kinase inhibitor library screening) ([4]; 10μΜ, 72 h): 90.7%
cell viability (kinase inhibitor library screening) ([5]; 1μΜ, 72 h): 67.2%
cell viability (kinase inhibitor library screening) ([5]; 10μΜ, 72 h): 58.8%
cell viability (kinase inhibitor library screening) (501Mel cells (parental); 1μΜ, 72 h): 95.0%
cell viability (kinase inhibitor library screening) (501Mel cells (parental); 10μΜ, 72 h): 89.4%

CNC(=O)c1ccc(C)c(-n2c(C)cc(OCc3ccc(F)cc3F)c(Br)c2=O)c1 [PH-797804]
Cell viability in kinase inhibitor library screening, IGR37 Parental, 1μΜ (IGR37 cells (parental); 1μΜ, 72 h, in %): 103.0
Cell viability in kinase inhibitor library screening, A375 GP, 1μΜ ([1]; 1μΜ, 72 h): 103.3
Cell viability in kinase inhibitor library screening, A375 GP, 10μΜ ([1]; 10μΜ, 72 h): 87.3
Cell viability in kinase inhibitor library screening, A375 Parental, 10μΜ (A375 cells (parental); 10μΜ): 84.4
Cell viability in kinase inhibitor library screening, A375 Parental, 1μΜ (A375 cells (parental); 1μΜ): 109.2
Cell viability in kinase inhibitor library screening, 501Mel GP, 1μΜ ([2]; 1μΜ, 72 h, in %): 106.6
Cell viability in kinase inhibitor library screening, 501Mel GP, 10μΜ ([2]; 10μΜ, 72 h, in %): 91.3
Cell viability in kinase inhibitor library screening, IGR37 XP, 10μΜ ([3]; 10μΜ, 72 h): 74.4%
Cell viability in kinase inhibitor library screening, IGR37 XP, 1μΜ ([3]; 1μΜ, 72 h, in %): 104.2
Cell viability in kinase inhibitor library screening, A375 XP, 10μΜ ([6]; 10μΜ, 72 h): 95.8
Cell viability in kinase inhibitor library screening, 501Mel XP, 1μΜ ([5]; 1μΜ, 72 h, in %): 90.4
Cell viability in kinase inhibitor library screening, 501Mel XP, 10μΜ ([5]; 10μΜ, 72 h, in %): 84.3
Cell viability in kinase inhibitor library screening, 501Mel Parental, 1μΜ (501Mel cells (parental); 1μΜ, 72 h, in %): 98.2

AZD4547
cell viability, IGR37 Parental, 10μΜ (IGR37 cells (parental); 10μΜ, 72 h): 46.6
cell viability, A375 Parental, 10μΜ (A375 cells (parental); 10μΜ): 58.2
cell viability, 501Mel GP, 10μΜ ([2]; 10μΜ, 72 h): 57.3
cell viability, IGR37 XP, 1μΜ ([3]; 1μΜ, 72 h): 94.4
cell viability, IGR37 XP, 10μΜ ([3]; 10μΜ, 72 h): 6.4
cell viability, A375 XP, 1μΜ ([6]; 1μΜ, 72 h): 100.3
cell viability, A375 XP, 10μΜ ([6]; 10μΜ, 72 h): 49.7
cell viability, IGR37 GP, 1μΜ ([4]; 1μΜ, 72 h): 93.7
cell viability, IGR37 GP, 10μΜ ([4]; 10μΜ, 72 h): 19.5
cell viability, 501Mel XP, 1μΜ ([5]; 1μΜ, 72 h): 93.2
cell viability, 501Mel XP, 10μΜ ([5]; 10μΜ, 72 h): 14.1
cell viability, 501Mel Parental, 10μΜ (501Mel cells (parental); 10μΜ, 72 h): 11.5

N#CC1(c2ccc(NC(=O)c3cccnc3NCc3ccncc3)cc2)CCCC1 [Apatinib (YN968D1)]
cell viability (kinase inhibitor library screening) (IGR37 cells (parental); 1μΜ, in %): 103.0
cell viability (kinase inhibitor library screening) (IGR37 cells (parental); 10μΜ, in %): 105.2
cell viability (kinase inhibitor library screening) ([1]; 1μΜ, in %): 97.5
cell viability (kinase inhibitor library screening) ([1]; 10μΜ, in %): 98.6
cell viability (kinase inhibitor library screening) ([2]; 1μΜ, in %): 102.7
cell viability (kinase inhibitor library screening) ([2]; 10μΜ, in %): 98.0
cell viability (kinase inhibitor library screening) ([3]; 1μΜ, in %): 105.2
cell viability (kinase inhibitor library screening) ([3]; 10μΜ, in %): 86.2
cell viability (kinase inhibitor library screening) ([6]; 1μΜ, in %): 103.9
cell viability (kinase inhibitor library screening) ([6]; 10μΜ, in %): 105.3
cell viability (kinase inhibitor library screening) ([4]; 1μΜ, in %): 94.0
cell viability (kinase inhibitor library screening) ([4]; 10μΜ, in %): 95.0
cell viability (kinase inhibitor library screening) ([5]; 1μΜ, in %): 112.2
cell viability (kinase inhibitor library screening) ([5]; 10μΜ, in %): 105.3
cell viability (kinase inhibitor library screening) (501Mel cells (parental); 1μΜ, in %): 103.5
cell viability (kinase inhibitor library screening) (501Mel cells (parental); 10μΜ, in %): 103.9

Cc1ccccc1-n1c(Cn2ncc3c(N)ncnc32)nc2cccc(C)c2c1=O [PIK-293]
Cell viability in kinase inhibitor library screening, IGR37 Parental, 1μΜ (IGR37 cells (parental); 1μΜ, 72 h, in %): 105.2
Cell viability in kinase inhibitor library screening, IGR37 Parental, 10μΜ (IGR37 cells (parental); 10μΜ, 72 h, in %): 107.6
Cell viability in kinase inhibitor library screening, A375 GP, 1μΜ ([1]; 1μΜ, 72 h): 97.7
Cell viability in kinase inhibitor library screening, A375 GP, 10μΜ ([1]; 10μΜ, 72 h): 99.7
Cell viability in kinase inhibitor library screening, 501Mel GP, 10μΜ ([2]; 10μΜ, 72 h, in %): 90.9
Cell viability in kinase inhibitor library screening, IGR37 XP, 10μΜ ([3]; 10μΜ, 72 h): 77.6%
Cell viability in kinase inhibitor library screening, IGR37 XP, 1μΜ ([3]; 1μΜ, 72 h, in %): 103.2
Cell viability in kinase inhibitor library screening, A375 XP, 1μΜ ([6]; 1μΜ, 72 h): 106.1
Cell viability in kinase inhibitor library screening, A375 XP, 10μΜ ([6]; 10μΜ, 72 h): 104.4
Cell viability in kinase inhibitor library screening, 501Mel XP, 1μΜ ([5]; 1μΜ, 72 h, in %): 112.1
Cell viability in kinase inhibitor library screening, 501Mel XP, 10μΜ ([5]; 10μΜ, 72 h, in %): 91.5
Cell viability in kinase inhibitor library screening, 501Mel Parental, 10μΜ (501Mel cells (parental); 10μΜ, 72 h, in %): 99.9

OCCn1cc(-c2cnc3nnn(Cc4ccc5ncccc5c4)c3n2)cn1 [PF-04217903]
cell viability (kinase inhibitor library screening) (IGR37 cells (parental); 1μΜ, 72 h): 119.0%
cell viability (kinase inhibitor library screening) (IGR37 cells (parental); 10μΜ, 72 h): 104.5%
cell viability (kinase inhibitor library screening) (A375 cells (parental); 1μΜ): 111.4%
cell viability (kinase inhibitor library screening) ([2]; 1μΜ, 72 h): 89.0%
cell viability (kinase inhibitor library screening) ([2]; 10μΜ, 72 h): 82.3%
cell viability (kinase inhibitor library screening) ([3]; 10μΜ, 72 h): 67.3%
cell viability (kinase inhibitor library screening) ([6]; 1μΜ, 72 h): 107.0%
cell viability (kinase inhibitor library screening) ([6]; 10μΜ, 72 h): 110.9%
cell viability (kinase inhibitor library screening) ([4]; 1μΜ, 72 h): 105.7%
cell viability (kinase inhibitor library screening) ([4]; 10μΜ, 72 h): 91.4%
cell viability (kinase inhibitor library screening) ([5]; 1μΜ, 72 h): 68.7%
cell viability (kinase inhibitor library screening) ([5]; 10μΜ, 72 h): 68.6%
cell viability (kinase inhibitor library screening) (501Mel cells (parental); 1μΜ, 72 h): 97.4%
cell viability (kinase inhibitor library screening) (501Mel cells (parental); 10μΜ, 72 h): 99.2%

CCn1c(N)c(C(=O)NC)c(=O)c2ccc(C#C[C@@](C)(O)COC)nc21 [SAR131675]
cell viability (kinase inhibitor library screening) (IGR37 cells (parental); 1μΜ, in %): 100.2
cell viability (kinase inhibitor library screening) (IGR37 cells (parental); 10μΜ, in %): 99.7
cell viability (kinase inhibitor library screening) ([1]; 1μΜ, in %): 103.2
cell viability (kinase inhibitor library screening) ([1]; 10μΜ, in %): 87.6
cell viability (kinase inhibitor library screening) ([2]; 1μΜ, in %): 103.5
cell viability (kinase inhibitor library screening) ([2]; 10μΜ, in %): 90.9
cell viability (kinase inhibitor library screening) ([3]; 1μΜ, in %): 94.6
cell viability (kinase inhibitor library screening) ([3]; 10μΜ, in %): 71.4
cell viability (kinase inhibitor library screening) ([6]; 1μΜ, in %): 108.8
cell viability (kinase inhibitor library screening) ([4]; 1μΜ, in %): 93.4
cell viability (kinase inhibitor library screening) ([4]; 10μΜ, in %): 96.6
cell viability (kinase inhibitor library screening) ([5]; 1μΜ, in %): 103.7
cell viability (kinase inhibitor library screening) ([5]; 10μΜ, in %): 85.3
cell viability (kinase inhibitor library screening) (501Mel cells (parental); 1μΜ, in %): 96.4
cell viability (kinase inhibitor library screening) (501Mel cells (parental); 10μΜ, in %): 92.6

O=C(O)c1ccc2c(c1)nc(Nc1cccc(Cl)c1)c1ccncc12 [cx-4945 (Silmitasertib)]
Cell viability in kinase inhibitor library screening, IGR37 Parental, 10μΜ (IGR37 cells (parental); 10μΜ, 72 h, in %): 86.7
Cell viability in kinase inhibitor library screening, A375 GP, 1μΜ ([1]; 1μΜ, 72 h): 93.2
Cell viability in kinase inhibitor library screening, 501Mel GP, 1μΜ ([2]; 1μΜ, 72 h, in %): 93.9
Cell viability in kinase inhibitor library screening, 501Mel GP, 10μΜ ([2]; 10μΜ, 72 h, in %): 31.8
Cell viability in kinase inhibitor library screening, IGR37 XP, 10μΜ ([3]; 10μΜ, 72 h): 23.6%
Cell viability in kinase inhibitor library screening, IGR37 XP, 1μΜ ([3]; 1μΜ, 72 h, in %): 96.8
Cell viability in kinase inhibitor library screening, IGR37 GP, 10μΜ ([4]; 10μΜ, 72 h): 55.9%
Cell viability in kinase inhibitor library screening, IGR37 GP, 1μΜ ([4]; 1μΜ, 72 h, in %): 94.1
Cell viability in kinase inhibitor library screening, 501Mel XP, 1μΜ ([5]; 1μΜ, 72 h, in %): 88.6
Cell viability in kinase inhibitor library screening, 501Mel Parental, 1μΜ (501Mel cells (parental); 1μΜ, 72 h, in %): 96.6
Cell viability in kinase inhibitor library screening, 501Mel Parental, 10μΜ (501Mel cells (parental); 10μΜ, 72 h, in %): 52.6
